These results are taken from ChEMBL document CHEMBL1201862, “PubChem BioAssay data set” (2004).

Each structure is given as a SMILES string.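 All cell lines were grown in 96-well plates and treated with compound for 48 hours. The concentration for 50% growth inhibition is given as GI50.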 Calls of active or inactive are those of the source. Cut-off read from the data, not from the text of the source: active = GI50 up to about 1.1 µM and inactive = higher.

Among the test systems are SK-OV-3; Malme-3M; SR; LOX IMVI; UACC-62; A549; EKVX; UACC-257; HOP-62; SF-539; OVCAR-8; SN12C; OVCAR-4; K562; NCI/ADR-RES; HCC 2998; SK-MEL-28; SW-620; MDA-N; NCI-H23.
Experiment in all cases: NCI tumour cell line growth inhibition, 48 h

Take `CC(C)[Si]1(C(C)C)OCC2OC(n3cnc4c(N)ncnc43)C(N)C2O[Si](C(C)C)(C(C)C)O1` (stereo not given): the GI50 was 24 µM (inactive) in the assay with SK-OV-3; 17.8 µM (inactive) with Malme-3M; 2.42 µM (inactive) in the assay on SR; 5.75 µM (inactive) with LOX IMVI; 10.1 µM (inactive) in the assay on UACC-62; 5.58 µM (inactive) in the assay with A549. For the same compound, the GI50 in the assay on EKVX was 17.7 µM (inactive); in the assay with UACC-257 it was 5.73 µM (inactive); in the assay on HOP-62, 17.2 µM (inactive); with SF-539 it was 11.6 µM (inactive); in the assay with OVCAR-8 it was 8.24 µM (inactive); with SN12C it was 10.1 µM (inactive). Also, the GI50 is 8.09 µM (inactive) with OVCAR-4; 3.51 µM (inactive) in the assay on K562; 5.21 µM (inactive) with NCI/ADR-RES; 4.79 µM (inactive) in the assay with HCC 2998; 25.9 µM (inactive) in the assay with SK-MEL-28; 6.41 µM (inactive) in the assay with SW-620. For the same compound, the GI50 in the assay with MDA-N is 6.32 µM (inactive); in the assay with NCI-H23 it was 9.16 µM (inactive).

In the case of `COc1cc2c(cc1OCCCCCCCCCCN1C(=O)c3cccc4cccc(c34)C1=O)N=C[C@@H]1CCCN1C2=O`, the GI50 is 6.68 µM (inactive) with SK-OV-3; 12 µM (inactive) with Malme-3M; 0.902 µM (active) in the assay on SR; 2.14 µM (inactive) in the assay on LOX IMVI; 12.2 µM (inactive) in the assay on UACC-62; 12.4 µM (inactive) in the assay with A549. Further, the GI50 in the assay with EKVX is 2.11 µM (inactive); with UACC-257, 16.1 µM (inactive); with HOP-62 it was 14.3 µM (inactive); with SF-539, 1.55 µM (inactive); with OVCAR-8, 4.95 µM (inactive); in the assay with SN12C, 4.42 µM (inactive). The GI50 in the assay on OVCAR-4 is 1.31 µM (inactive); in the assay on K562, 5.26 µM (inactive); in the assay with NCI/ADR-RES, 2.64 µM (inactive); with HCC 2998, 11.1 µM (inactive); in the assay with SK-MEL-28, 12.3 µM (inactive); in the assay with SW-620, 4.34 µM (inactive). The results for the GI50 with MDA-N and in the assay with NCI-H23 were 7.55 µM (inactive) and 6.21 µM (inactive), respectively.

As to `CC(NC1=CC(=O)c2ncccc2C1=O)C(O)c1ccccc1` (stereo not given), the GI50 is 16.1 µM (inactive) in the assay on SK-OV-3; 1.89 µM (inactive) with Malme-3M; 8.36 µM (inactive) in the assay with SR; 1.8 µM (inactive) in the assay on LOX IMVI; 2.02 µM (inactive) in the assay on UACC-62; 3.03 µM (inactive) in the assay on A549. For the same compound, the GI50 is 12.6 µM (inactive) in the assay with EKVX; 1.91 µM (inactive) in the assay with UACC-257; 4.83 µM (inactive) in the assay with HOP-62; 6.04 µM (inactive) in the assay with SF-539; 4.37 µM (inactive) in the assay with OVCAR-8; 5.18 µM (inactive) in the assay on SN12C. In addition, the GI50 was 6.78 µM (inactive) in the assay with OVCAR-4; 2.04 µM (inactive) in the assay on K562; 8.15 µM (inactive) in the assay with NCI/ADR-RES; 10.2 µM (inactive) in the assay on HCC 2998; 3.32 µM (inactive) with SK-MEL-28; 4.9 µM (inactive) with SW-620. The GI50 in the assay with MDA-N was 1.58 µM (inactive); in the assay with NCI-H23, 1.62 µM (inactive).

As for `N=C(N)N/N=C/c1cnn(C(=N)N)c1`, the GI50 with SK-OV-3, with Malme-3M, in the assay on SR, in the assay with LOX IMVI, in the assay with UACC-62 and with A549 was > 100 µM (inactive) each time. The GI50 in the assay with EKVX is 45.7 µM (inactive); with UACC-257, 57.4 µM (inactive); in the assay on HOP-62, > 100 µM (inactive); with SF-539, > 100 µM (inactive); in the assay on OVCAR-8 it was > 100 µM (inactive); in the assay with SN12C, 63.7 µM (inactive). Also, the GI50 in the assay with OVCAR-4, with K562, in the assay with NCI/ADR-RES, with HCC 2998, with SK-MEL-28 and with SW-620 was > 100 µM (inactive) each time. In addition, the GI50 with MDA-N and with NCI-H23 was > 100 µM (inactive) throughout.

In the case of `N#CC(NNC(=O)Cc1ccccc1)c1c(O)ccc2ccccc12` (stereo not given), the GI50 with SK-OV-3 is 4.84 µM (inactive); in the assay on Malme-3M, 4.4 µM (inactive); with SR, 3.44 µM (inactive); in the assay on LOX IMVI, 1.47 µM (inactive); in the assay with UACC-62, 3.08 µM (inactive); in the assay on A549, 5.51 µM (inactive). In addition, the GI50 was 5.56 µM (inactive) with EKVX; 3.59 µM (inactive) in the assay with UACC-257; 10.2 µM (inactive) with HOP-62; 4.16 µM (inactive) in the assay with SF-539; 4.17 µM (inactive) in the assay on OVCAR-8; 7.93 µM (inactive) with SN12C. The GI50 in the assay on OVCAR-4 was 5.5 µM (inactive); in the assay with K562, 3.69 µM (inactive); in the assay on NCI/ADR-RES, 2.92 µM (inactive); in the assay on HCC 2998, 14.3 µM (inactive); in the assay on SK-MEL-28, 7.66 µM (inactive); in the assay with SW-620 it was 6.98 µM (inactive). Besides, the GI50 in the assay on MDA-N is 7.5 µM (inactive); in the assay on NCI-H23 it was 4.89 µM (inactive).

Take `CC(=O)c1c(C)cc2cccc(OC3OC(CO)C(O)C(O)C3O)c2c1O.CC1OC(O)C(O)C(O)C1O` (stereo not given): the GI50 in the assay on SK-OV-3, in the assay on Malme-3M, with SR, in the assay with LOX IMVI, in the assay with UACC-62 and in the assay with A549 was > 100 µM (inactive) each time. Besides, the GI50 with EKVX, with UACC-257, in the assay on HOP-62, in the assay on SF-539, in the assay with OVCAR-8 and in the assay with SN12C was > 100 µM (inactive) throughout. The GI50 in the assay on OVCAR-4, in the assay with K562, in the assay with NCI/ADR-RES, in the assay with HCC 2998, in the assay with SK-MEL-28 and with SW-620 was > 100 µM (inactive) in each case. For the same compound, the GI50 with MDA-N and with NCI-H23 was > 100 µM (inactive) in each case.

Consider `Cc1ccc2c(c1)C(C1Cc3c(C)cccc3C1=O)OC2=O` (stereo not given), for which the GI50 was > 100 µM (inactive) in the assay with SK-OV-3; > 100 µM (inactive) in the assay with Malme-3M; 91.6 µM (inactive) in the assay on SR; > 100 µM (inactive) in the assay with LOX IMVI; > 100 µM (inactive) in the assay with UACC-62; > 100 µM (inactive) with A549. For the same compound, the GI50 in the assay with EKVX was > 100 µM (inactive); with UACC-257, > 100 µM (inactive); with HOP-62, > 100 µM (inactive); in the assay on SF-539 it was 95.5 µM (inactive); in the assay with OVCAR-8 it was > 100 µM (inactive); in the assay on SN12C, > 100 µM (inactive). Moreover, the GI50 with OVCAR-4 was > 100 µM (inactive); in the assay on K562, > 100 µM (inactive); in the assay on NCI/ADR-RES, 40.4 µM (inactive); in the assay with HCC 2998, > 100 µM (inactive); in the assay on SK-MEL-28 it was > 100 µM (inactive); in the assay with SW-620, > 100 µM (inactive). Besides, the GI50 in the assay on MDA-N and with NCI-H23 was > 100 µM (inactive) in each case.
